Read-outs that look alike come from different tables or passages of the source. Peptide text beside a SMILES is read from it.
Tests used:
[1] = tested on: anti-β1EC2-induced heart failure (β1EC2/GST-FP-immunised rats); conditions: therapy-study, end of study, mean ±SEM
Protocol: (§1) In brief, n = 76 two months old Lewis/CrlBR rats were either s.c. immunised with 50 μg β1EC2/GST-FP, or n = 38 rats were control-injected with 0.9% NaCl (t = 0). To maintain high anti-β1EC2-titers, all immunised rats were boosted with β1EC2/GST-FP (or 0.9% NaCl) every month over 20 months as previously described. Application of the different linear or cyclic β1-AR peptides (corresponding to the primary AA-sequence of either the first (β1EC1) or the 2nd extra-cellular β1-AR loop (β1EC2)) or the β1-receptor blocker bisoprolol was initiated either 6 weeks after the 1st immunisation (i.e. 15 days after the 1st boost, prevention-study), or 8.5 months after the 1st immunisation (therapy-study).
From paraffin-embedded heart preparations cavity- and wall-dimensions were determined by computer-aided analysis of H&E-stained mid-ventricular 2μm-sections as previously described. H&E-stained paraffin-sections also served to quantify damaged and fibrotic cardiac areas (scars). For detection of mast cells, deparaffinised cardiac sections were stained with acidified (pH<2.5) toluidine blue 0.1% (Sigma). The number of toluidine-positive cells was normalized to square millimeter of cardiac tissue. TUNEL-positive cells were quantified in 2μm mid-ventricular paraffin-sections using a TMR Red in Situ Death Detection Kit (Roche, Basel, Switzerland). Only the total number of TUNEL-postive cells/section was determined without further differentiation of the specific apoptotic cell type (e.g., fibroblasts, endothelial cells, cardiomyocytes).

anti-β1EC2-antibodies = experiment: Free anti-β1EC2-titers by ELISA, therapy-study; format: in vivo, Lewis/CrlBR rats; conditions: for decline in anti-β1EC2-titers: 1.0 mg/kg i.v. every 4 weeks, irrespective of bisoprolol co-treatment (Fig. 2F)
Protocol: as §1
(TIF) Click here for additional data file.

[2] = tested on: anti-β1EC2-induced heart failure (β1EC2/GST-FP-immunised rats); experiment: Relative organ wet weights and body weight, prevention-study; conditions: month 16, mean ±SEM
Protocol: as §1
(§2) After the hearts all other relevant inner organs (e.g., lung, liver, spleen, kidneys, brain, and eyes) were removed, rinsed with ice-cold PBS, weighed, sectioned, and fixed for further histologic analysis.

[3] = tested on: anti-β1EC2-induced heart failure (β1EC2/GST-FP-immunised rats); experiment: Echocardiography and catheterisation, cardiomyopathic phenotype, therapy-study; format: in vivo, Lewis/CrlBR rats; conditions: echocardiography and catheterisation (Fig. 2G, H; S2 Fig.)
Protocol: as §1
In brief, the rats were lightly anaestetised (30 mg/kg ketamine-HCl and 5 mg/kg xylazine i.p.), shaved (chest), and placed supine on a special table. M-mode tracings were recorded at baseline (before immunisation), and subsequently every four months in the parasternal long and short axis views according to the guidelines of the American Society for Echocardiography. Pulsed-wave Doppler spectra were recorded from the apical five-chamber view and the velocity-time integral (VTI) of the transaortic flow served to calculate cardiac output (CO [ml/min] = Aortic VTI x (π [LV-outflow tract diameter/2]^2) x bpm).

[4] = tested on: anti-β1EC2-induced heart failure (β1EC2/GST-FP-immunised rats); experiment: Left heart catheterisation (haemodynamics), therapy-study; format: in vivo, Lewis/CrlBR rats; conditions: LV catheterisation month 20, mean ±SEM
Protocol: as §1

[5] = tested on: anti-β1EC2-induced heart failure (β1EC2/GST-FP-immunised rats); experiment: Relative organ wet weights and body weight, therapy-study; conditions: month 20, mean ±SEM
Protocol: as §1, §2

[6] = immunised anti-β1EC2-positive rats, from 8.5 months after 1st immunisation peptides 1.0 mg/kg i.v. every 4 weeks, bisoprolol 15 mg/kg/day orally, over 12 months
[7] = non-immunised 0.9% NaCl-injected rats, EC2-CP 1.0 mg/kg i.v. every 4 weeks or bisoprolol 15 mg/kg/day orally over 12 months
[8] = immunised anti-β1EC2-positive rats, from 6 weeks after 1st immunisation EC2-CP 1.0 mg/kg i.v. every 4 weeks or bisoprolol 15 mg/kg/day orally over 12 months

CC(C)[C@@H]1NC(=O)[C@H](Cc2ccccc2)NC(=O)[C@H](CC(=O)O)NC(=O)[C@H](CS)NC(=O)[C@H](CS)NC(=O)[C@H](CCCCN)NC(=O)[C@@H]2CCCN2C(=O)[C@H](CC(=O)O)NC(=O)[C@H](CC(N)=O)NC(=O)[C@H](Cc2ccc(O)cc2)NC(=O)[C@H](CS)NC(=O)[C@H](CCCNC(=N)N)NC(=O)[C@H](CCCNC(=N)N)NC(=O)[C@H](C)NC(=O)[C@H](CCC(=O)O)NC(=O)[C@H](CC(=O)O)NC(=O)[C@H](CO)NC(=O)[C@H](CCC(=O)O)NC(=O)[C@H](C)NC(=O)[C@H](CCCNC(=N)N)NC(=O)[C@H](C)NC(=O)[C@H](CCC(N)=O)NC(=O)CNC(=O)[C@H](CCCNC(=N)N)NC(=O)[C@H](CC(N)=O)NC(=O)[C@H]([C@@H](C)O)NC1=O [β1EC2-CP] (cyclo(AESDEARRCYNDPKCCDFVTNRGQAR))
IVS (thickness of the inter-ventricular septum) [1, 6]: 1.7 ±0.1 mm | LVA (total LV-area) [1, 6]: 65.2 ±2.5 mm2 | LVCA (LV-cavity area) [1, 6]: 25.6 ±1.0 mm2 | LVWA (LV wall area) [1, 6]: 39.6 ±1.7 mm2 | PW (posterior wall thickness) [1, 6]: 1.8 ±0.1 mm | IVS (thickness of the inter-ventricular septum) [1, 7]: 1.7 ±0.1 mm | LVA (total LV-area) [1, 7]: 57.4 ±0.7 mm2 | LVCA (LV-cavity area) [1, 7]: 21.3 ±0.1 mm2 | LVWA (LV wall area) [1, 7]: 36.1 ±0.7 mm2 | PW (posterior wall thickness) [1, 7]: 1.9 ±0.1 mm | decline in anti-β1EC2-titers (anti-β1EC2-antibodies; after 4–5 injections): > 90% | decline in anti-β1EC2-titers (anti-β1EC2-antibodies; after two injections): > 70% | steady state antibody-levels in % of the titers at initiation of therapy (anti-β1EC2-antibodies; despite monthly antigen-boosts): less than 15% | Heart, relative (wet) weight [2, 8]: 2.46 ± 0.05 mg/g | Kidney L, relative (wet) weight [2, 8]: 2.71 ± 0.08 mg/g | Kidney R, relative (wet) weight [2, 8]: 2.79 ± 0.06 mg/g | Liver, relative (wet) weight [2, 8]: 23.59 ± 0.46 mg/g | Lung, relative (wet) weight [2, 8]: 2.74 ± 0.14 mg/g | Spleen, relative (wet) weight [2, 8]: 1.48 ± 0.05 mg/g | Weight (body weight) [2, 8]: 543 ± 24 g | Heart, relative (wet) weight [2, 7]: 2.50 ± 0.06 mg/g | Kidney L, relative (wet) weight [2, 7]: 2.62 ± 0.08 mg/g | Kidney R, relative (wet) weight [2, 7]: 2.79 ± 0.01 mg/g | Liver, relative (wet) weight [2, 7]: 22.51 ± 0.20 mg/g | Lung, relative (wet) weight [2, 7]: 2.77 ± 0.10 mg/g | Spleen, relative (wet) weight [2, 7]: 1.58 ± 0.15 mg/g | Weight (body weight) [2, 7]: 553 ± 11 g | cardiomyopathic phenotype, in words [3]: almost fully reversed | -dP/dt (relaxation) [4, 6]: 5228 ±166 mmHg/s | HF (heart frequence) [4, 6]: 217 ±3 bpm | LVEDP (LV end-diastolic pressure) [4, 6]: 10.0 ± 1.0 mmHg | LVSP (maximal systolic LV-pressure) [4, 6]: 126 ±4 mmHg | -dP/dt (relaxation) [4, 7]: 5502 ±248 mmHg/s | HF (heart frequence) [4, 7]: 221 ±7 bpm | LVEDP (LV end-diastolic pressure) [4, 7]: 9.2 ± 1.1 mmHg | LVSP (maximal systolic LV-pressure) [4, 7]: 121 ±8 mmHg | Heart, relative (wet) weight [5, 6]: 2.20 ± 0.09 mg/g | Kidney L, relative (wet) weight [5, 6]: 2.29 ± 0.06 mg/g | Kidney R, relative (wet) weight [5, 6]: 2.25 ± 0.05 mg/g | Liver, relative (wet) weight [5, 6]: 19.83 ± 0.50 mg/g | Lung, relative (wet) weight [5, 6]: 2.26 ± 0.16 mg/g | Spleen, relative (wet) weight [5, 6]: 1.23 ± 0.04 mg/g | Weight (body weight) [5, 6]: 673 ± 12 g | Heart, relative (wet) weight [5, 7]: 2.15 ± 0.08 mg/g | Kidney L, relative (wet) weight [5, 7]: 2.19 ± 0.08 mg/g | Kidney R, relative (wet) weight [5, 7]: 2.22 ± 0.08 mg/g | Liver, relative (wet) weight [5, 7]: 18.9 ± 0.55 mg/g | Lung, relative (wet) weight [5, 7]: 2.08 ± 0.07 mg/g | Spleen, relative (wet) weight [5, 7]: 1.18 ± 0.03 mg/g | Weight (body weight) [5, 7]: 695 ± 27 g

CC(C)[C@H](NC(=O)[C@H](Cc1ccccc1)NC(=O)[C@H](CC(=O)O)NC(=O)[C@H](CS)NC(=O)[C@H](CS)NC(=O)[C@H](CCCCN)NC(=O)[C@@H]1CCCN1C(=O)[C@H](CC(=O)O)NC(=O)[C@H](CC(N)=O)NC(=O)[C@H](Cc1ccc(O)cc1)NC(=O)[C@H](CS)NC(=O)[C@H](CCCNC(=N)N)NC(=O)[C@H](CCCNC(=N)N)NC(=O)[C@H](C)NC(=O)[C@H](CCC(=O)O)NC(=O)[C@H](CC(=O)O)NC(=O)[C@H](CO)NC(=O)[C@H](CCC(=O)O)NC(=O)[C@H](C)NC(=O)[C@H](CCCNC(=N)N)NC(=O)[C@H](C)N)C(=O)N[C@H](C(=O)N[C@@H](CC(N)=O)C(=O)N[C@@H](CCCNC(=N)N)C(=O)NCC(N)=O)[C@@H](C)O [β1EC2-Lin] (H-ARAESDEARRCYNDPKCCDFVTNRG-NH2; N-terminus and C-terminus assumed)
IVS (thickness of the inter-ventricular septum) [1, 6]: 1.5 ±0.1 mm | LVA (total LV-area) [1, 6]: 71.2 ±3.5 mm2 | LVCA (LV-cavity area) [1, 6]: 32.7 ±1.3 mm2 | LVWA (LV wall area) [1, 6]: 38.5 ±2.4 mm2 | PW (posterior wall thickness) [1, 6]: 1.6 ±0.1 mm | effect on anti-β1EC2-titers, in words (anti-β1EC2-antibodies; peptides 1.0 mg/kg/month i.v., bisoprolol 15 mg/kg/day orally (S1 Fig., Fig. 2F)): only negligible effects | cardiomyopathic phenotype, in words [3]: failed to elicit any cardiopotective effects | -dP/dt (relaxation) [4, 6]: 4857 ±157 mmHg/s | HF (heart frequence) [4, 6]: 210 ±6 bpm | LVEDP (LV end-diastolic pressure) [4, 6]: 14.5 ±1.2 mmHg | LVSP (maximal systolic LV-pressure) [4, 6]: 116 ±4 mmHg | Heart, relative (wet) weight [5, 6]: 2.88 ± 0.24 mg/g | Kidney L, relative (wet) weight [5, 6]: 2.32 ± 0.14 mg/g | Kidney R, relative (wet) weight [5, 6]: 2.36 ± 0.20 mg/g | Liver, relative (wet) weight [5, 6]: 22.64 ± 0.59 mg/g | Lung, relative (wet) weight [5, 6]: 2.77 ± 0.12 mg/g | Spleen, relative (wet) weight [5, 6]: 1.49 ± 0.09 mg/g | Weight (body weight) [5, 6]: 598 ± 38 g
